Results as given in patent US9212173B2, “Pyrazole aminopyrimidine derivatives as LRRK2 modulators” (Genentech, Inc., priority 2012, dated 2015).

Target: LRRK2 (Homo sapiens (Human), UniProt Q5S007, G2019S)
Assay: In Vitro LRRK2 Assay (LRRK2 Ki)
Type: biochemical
Protocol: In Vitro LRRK2 Lanthascreen Binding Assay
This assay was used to determine a compound's potency in inhibiting activity of LRRK2 by determining, Kiapp, IC50, or percent inhibition values.
Binding of the Alexa Fluor® “tracer” to a kinase is detected by addition of a Eu-labeled anti-GST antibody.
12 pt curve. […] Stamp 5 ul to assay plate. Final top test concentration 100 uM
In Reaction Buffer, 5 ul of DMSO (3%) was added to total and blank wells and 5 ul of Eu-labeled anti-GST antibody (6 nM) was added to blank wells. Add 5 ul LRRK2 (30 nM)/Eu-labeled anti-GST antibody (6 nM) mix to compound and total wells.
Incubate plates at room temperature for 1 hour on a plate shaker (gentle shaking). Read on Perkin Elmer EnVision reader HTRF protocol
Subtract mean background values from all data points. Calculate % of control for each test value. Plot % of control vs Compound concentration. Calculate Ki Value (xlfit curve fitting-Morrison equation). Results expressed as a Ki in μM. Equation for Ki: Y=V0*(1−((x+Ki*(1+S/Km)+Et)/(2*Et)−(((x+Ki*(1+S/Km)+Et)^2−(4*Et*x))^0.5)/(2*Et)))
This assay was used to determine a compound's potency in inhibiting activity of LRRK2 by determining, Kiapp, IC50, or percent inhibition values. In a polypropylene plate, LRRK2, fluorescently-labeled peptide substrate, ATP and test compound were incubated together. Using a LabChip 3000 (Caliper Life Sciences), after the reaction the substrate was separated by capillary electrophoresis into two populations: phosphorylated and unphosphorylated. The relative amounts of each were quantitated by fluorescence intensity. LRRK2 Ki was determined according to the equation: Y=V0*(1−((x+Ki*(1+S/Km)+Et)/(2*Et)−(((x+Ki*(1+S/Km)+Et)^2−(4*Et*x))^0.5)/(2*Et))).
Ki values in Table 4 and elsewhere herein are shown in μM.
For serial dilutions, 34.6 μl DMSO was added to columns 3-24.
In Complete Reaction Buffer, substrate was diluted to 4 μM. Equal volumes of Complete Reaction Buffer and 4 μM substrate were combined to obtain the blank. Equal volumes of Complete Reaction Buffer and 4 μM substrate were combined and to the combined solution was added 2× final LRRK2 concentration.
To a 50 μl polypropylene plate, 5 μl/well buffer/substrate was added by hand to Blank wells. A Biomek FX was used to start the kinase reaction (“PLK SAR 23 ATP”). The following were added to the appropriate wells:
The plate was incubated for 2 hours in the dark. Biomek FX was used to stop the kinase reaction (“PLK Stop”), and 10 μl/well Stop solution was added to the Assay Plate. Results were read on the LabChip 3000.
The LabChip 3000 was run using the job “LRRK2 IC50” with the following job settings: […]

LRRK2, sequence (Q5S007 whole entry G2019S): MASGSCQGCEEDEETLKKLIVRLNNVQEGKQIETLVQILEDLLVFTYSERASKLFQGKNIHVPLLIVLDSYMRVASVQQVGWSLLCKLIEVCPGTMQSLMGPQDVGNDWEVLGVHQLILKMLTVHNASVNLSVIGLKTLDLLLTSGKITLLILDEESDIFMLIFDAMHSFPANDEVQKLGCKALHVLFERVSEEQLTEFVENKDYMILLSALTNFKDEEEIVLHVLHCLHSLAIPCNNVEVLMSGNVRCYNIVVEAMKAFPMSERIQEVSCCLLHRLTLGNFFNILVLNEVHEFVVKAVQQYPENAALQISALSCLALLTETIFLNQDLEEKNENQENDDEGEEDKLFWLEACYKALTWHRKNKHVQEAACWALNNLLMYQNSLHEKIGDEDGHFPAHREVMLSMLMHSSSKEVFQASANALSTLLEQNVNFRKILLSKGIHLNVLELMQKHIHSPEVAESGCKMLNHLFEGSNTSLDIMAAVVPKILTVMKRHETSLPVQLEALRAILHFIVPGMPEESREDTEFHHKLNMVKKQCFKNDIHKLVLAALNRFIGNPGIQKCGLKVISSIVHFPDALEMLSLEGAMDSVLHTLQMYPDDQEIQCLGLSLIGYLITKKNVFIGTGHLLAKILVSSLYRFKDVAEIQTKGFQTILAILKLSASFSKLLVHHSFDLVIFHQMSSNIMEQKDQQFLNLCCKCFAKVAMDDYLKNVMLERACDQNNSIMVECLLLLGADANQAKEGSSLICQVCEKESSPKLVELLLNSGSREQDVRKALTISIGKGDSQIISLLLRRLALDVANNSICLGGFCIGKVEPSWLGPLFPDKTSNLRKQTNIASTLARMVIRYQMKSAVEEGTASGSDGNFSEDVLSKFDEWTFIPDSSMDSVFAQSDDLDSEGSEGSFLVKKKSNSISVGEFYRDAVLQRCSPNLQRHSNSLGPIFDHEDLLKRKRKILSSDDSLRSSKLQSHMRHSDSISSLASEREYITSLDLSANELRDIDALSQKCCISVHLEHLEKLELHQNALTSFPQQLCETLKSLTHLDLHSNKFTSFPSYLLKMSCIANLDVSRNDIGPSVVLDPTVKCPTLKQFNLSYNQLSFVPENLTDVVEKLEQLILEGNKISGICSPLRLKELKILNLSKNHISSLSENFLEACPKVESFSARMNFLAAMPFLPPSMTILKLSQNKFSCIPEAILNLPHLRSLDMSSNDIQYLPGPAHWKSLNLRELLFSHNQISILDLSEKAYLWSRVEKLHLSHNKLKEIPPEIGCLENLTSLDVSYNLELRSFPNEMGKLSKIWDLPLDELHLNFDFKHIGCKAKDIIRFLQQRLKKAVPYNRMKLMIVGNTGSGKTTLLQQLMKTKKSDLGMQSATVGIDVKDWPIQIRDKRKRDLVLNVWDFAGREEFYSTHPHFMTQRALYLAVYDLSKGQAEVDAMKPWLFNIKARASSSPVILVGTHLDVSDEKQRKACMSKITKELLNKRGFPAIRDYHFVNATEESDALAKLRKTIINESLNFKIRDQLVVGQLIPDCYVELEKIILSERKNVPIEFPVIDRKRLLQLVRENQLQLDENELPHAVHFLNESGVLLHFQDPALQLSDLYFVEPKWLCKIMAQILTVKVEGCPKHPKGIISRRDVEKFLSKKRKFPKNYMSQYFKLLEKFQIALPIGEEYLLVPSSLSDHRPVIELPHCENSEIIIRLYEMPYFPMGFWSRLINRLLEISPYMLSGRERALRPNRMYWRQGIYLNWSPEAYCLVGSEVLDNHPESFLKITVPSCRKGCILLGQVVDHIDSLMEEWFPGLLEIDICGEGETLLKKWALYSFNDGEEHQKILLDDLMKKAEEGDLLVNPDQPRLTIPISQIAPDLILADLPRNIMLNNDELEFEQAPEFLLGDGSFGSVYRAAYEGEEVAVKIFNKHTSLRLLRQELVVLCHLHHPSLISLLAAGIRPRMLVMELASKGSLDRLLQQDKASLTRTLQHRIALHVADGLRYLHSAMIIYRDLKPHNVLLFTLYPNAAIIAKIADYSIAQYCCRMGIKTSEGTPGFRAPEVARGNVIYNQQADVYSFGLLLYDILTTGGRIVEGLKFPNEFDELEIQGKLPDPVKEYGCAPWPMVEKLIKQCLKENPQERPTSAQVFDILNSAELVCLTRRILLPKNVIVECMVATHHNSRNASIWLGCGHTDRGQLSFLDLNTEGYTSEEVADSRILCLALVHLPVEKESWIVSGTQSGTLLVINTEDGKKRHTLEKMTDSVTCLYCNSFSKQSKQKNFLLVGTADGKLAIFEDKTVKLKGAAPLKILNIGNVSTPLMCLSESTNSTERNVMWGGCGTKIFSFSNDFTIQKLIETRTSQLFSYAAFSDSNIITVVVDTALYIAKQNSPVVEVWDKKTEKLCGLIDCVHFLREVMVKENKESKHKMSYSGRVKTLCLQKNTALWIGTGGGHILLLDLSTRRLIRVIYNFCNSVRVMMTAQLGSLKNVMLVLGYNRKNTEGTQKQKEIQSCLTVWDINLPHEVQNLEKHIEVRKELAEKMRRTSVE

Compound | Ki
CNc1nc(Nc2cn(S(=O)(=O)CCOC)nc2C)ncc1C(F)(F)F [Example 21, N2-(1-((2-methoxyethyl)sulfonyl)-3-methyl-1H-pyrazol-4-yl)-N4-methyl-5-(trifluoromethyl)pyrimidine-2,4-diamine] | 1.85 nM
CCNc1nc(Nc2cn(C(C)(C)c3ncn(C)n3)nc2Cl)ncc1C(F)(F)F [Example 32, N2-(3-chloro-1-(2-(1-methyl-1H-1,2,4-triazol-3-yl)propan-2-yl)-1H-pyrazol-4-yl)-N4-ethyl-5-(trifluoromethyl)pyrimidine-2,4-diamine] | 0.5 nM
CNc1nc(Nc2cn(C3CCOC[C@H]3F)nc2C)ncc1C(F)(F)F (stereo in doubt) [Example 37, N2-(1-(3-fluorotetrahydro-2H-pyran-4-yl)-3-methyl-1H-pyrazol-4-yl)-N4-methyl-5-(trifluoromethyl)pyrimidine-2,4-diamine] | 0.6 nM
CNc1nc(Nc2cn(C(C)(C)c3ncc(C)o3)nc2C)ncc1C(F)(F)F [Example 18, N4-methyl-N2-(3-methyl-1-(2-(5-methyloxazol-2-yl)propan-2-yl)-1H-pyrazol-4-yl)-5-(trifluoromethyl)pyrimidine-2,4-diamine] | 3.82 nM
Cc1c(Nc2ncc(C#N)c(NC3CC3)n2)cnn1C1CCOCC1 [Example 3, 4-(cyclopropylamino)-2-((5-methyl-1-(tetrahydro-2H-pyran-4-yl)-1H-pyrazol-4-yl)amino)pyrimidine-5-carbonitrile] | 7.3 nM
CNc1nc(Nc2cc(C(C)(C)C#N)nn2C)ncc1C(F)(F)F [Example 45, 2-methyl-2-(1-methyl-5-((4-(methylamino)-5-(trifluoromethyl)pyrimidin-2-yl)amino)-1H-pyrazol-3-yl)propanenitrile] | 8.6 nM
CNc1nc(Nc2cn(C(C)(C)c3ncccn3)nc2C)ncc1C(F)(F)F [Example 26, N4-methyl-N2-(3-methyl-1-(2-(pyrimidin-2-yl)propan-2-yl)-1H-pyrazol-4-yl)-5-(trifluoromethyl)pyrimidine-2,4-diamine] | 4.3 nM
CNc1nc(Nc2cnn(C3CCOC[C@H]3F)c2C)ncc1C(F)(F)F (stereo in doubt) [Example 39, N2-(1-(3-fluorotetrahydro-2H-pyran-4-yl)-5-methyl-1H-pyrazol-4-yl)-N4-methyl-5-(trifluoromethyl)pyrimidine-2,4-diamine] | 2.8 nM
CCNc1nc(Nc2cn(C(C)(C)c3ncn(C(C)C)n3)nc2C)ncc1C(F)(F)F [Example 30, N4-ethyl-N2-(1-(2-(1-isopropyl-1H-1,2,4-triazol-3-yl)propan-2-yl)-3-methyl-1H-pyrazol-4-yl)-5-(trifluoromethyl)pyrimidine-2,4-diamine] | 0.6 nM
CCNc1nc(Nc2cn(S(=O)(=O)CCOC)nc2C)ncc1C(F)(F)F [Example 20, N4-ethyl-N2-(1-((2-methoxyethyl)sulfonyl)-3-methyl-1H-pyrazol-4-yl)-5-(trifluoromethyl)pyrimidine-2,4-diamine] | 0.96 nM
CNc1nc(Nc2cn(CCc3ccn(C)n3)nc2C)ncc1C(F)(F)F [Example 36, N4-methyl-N2-(3-methyl-1-(2-(1-methyl-1H-pyrazol-3-yl)ethyl)-1H-pyrazol-4-yl)-5-(trifluoromethyl)pyrimidine-2,4-diamine] | 3.7 nM
CCNc1nc(Nc2cn(C(C)(C)c3nncn3C)nc2Cl)ncc1C(F)(F)F [Example 31, N2-(3-chloro-1-(2-(4-methyl-4H-1,2,4-triazol-3-yl)propan-2-yl)-1H-pyrazol-4-yl)-N4-ethyl-5-(trifluoromethyl)pyrimidine-2,4-diamine] | 42.5 nM
CNc1nc(Nc2cnn(CC3(O)CC3)c2Cl)ncc1C(F)(F)F [Example 10, 1-((5-chloro-4-((4-(methylamino)-5-(trifluoromethyl)pyrimidin-2-yl)amino)-1H-pyrazol-1-yl)methyl)cyclopropanol] | 5 nM
CCNc1nc(Nc2cn(C3(C)COC3)nc2C)ncc1C(F)(F)F [Example 19, N4-ethyl-N2-(3-methyl-1-(3-methyloxetan-3-yl)-1H-pyrazol-4-yl)-5-(trifluoromethyl)pyrimidine-2,4-diamine] | 0.975 nM
CCNc1nc(Nc2cn(C(C)(C)c3nnc(CC)o3)nc2C)ncc1C(F)(F)F [Example 29, N4-ethyl-N2-(1-(2-(5-ethyl-1,3,4-oxadiazol-2-yl)propan-2-yl)-3-methyl-1H-pyrazol-4-yl)-5-(trifluoromethyl)pyrimidine-2,4-diamine] | 6.5 nM
CNc1nc(Nc2cn(C(C)(C)c3nc(C)cn3C)nc2C)ncc1C(F)(F)F [Example 16, N2-(1-(2-(1,4-dimethyl-1H-imidazol-2-yl)propan-2-yl)-3-methyl-1H-pyrazol-4-yl)-N4-methyl-5-(trifluoromethyl)pyrimidine-2,4-diamine] | 140 nM
CNc1nc(Nc2cn(C3(C)COC3)nc2C)ncc1C(F)(F)F [Example 15, N4-methyl-N2-(3-methyl-1-(3-methyloxetan-3-yl)-1H-pyrazol-4-yl)-5-(trifluoromethyl)pyrimidine-2,4-diamine] | 4.8 nM
CCNc1nc(Nc2cc(C(C)(C)C#N)nn2C)ncc1C(F)(F)F [Example 44, 2-(5-((4-(ethylamino)-5-(trifluoromethyl)pyrimidin-2-yl)amino)-1-methyl-1H-pyrazol-3-yl)-2-methylpropanenitrile] | 0.7 nM
CNc1nc(Nc2cn(C(C)(C)CO)nc2C)ncc1C(F)(F)F [Example 9, 2-methyl-2-(3-methyl-4-((4-(methylamino)-5-(trifluoromethyl)pyrimidin-2-yl)amino)-1H-pyrazol-1-yl)propan-1-ol] | 4.8 nM
CCNc1nc(Nc2cc(C#N)nn2C)ncc1C(F)(F)F [Example 50, 5-((4-(ethylamino)-5-(trifluoromethyl)pyrimidin-2-yl)amino)-1-methyl-1H-pyrazole-3-carbonitrile] | 24.5 nM
CNc1nc(Nc2cnn(C3CCOC[C@@H]3F)c2C)ncc1C(F)(F)F (stereo partly drawn) [Example 40, N2-(1-((3R)-3-fluorotetrahydro-2H-pyran-4-yl)-5-methyl-1H-pyrazol-4-yl)-N4-methyl-5-(trifluoromethyl)pyrimidine-2,4-diamine] | 0.6 nM
CNc1nc(Nc2cnn(CCc3ccn(C)n3)c2C)ncc1C(F)(F)F [Example 33, N4-methyl-N2-(5-methyl-1-(2-(1-methyl-1H-pyrazol-3-yl)ethyl)-1H-pyrazol-4-yl)-5-(trifluoromethyl)pyrimidine-2,4-diamine] | 2 nM
CNc1nc(Nc2cn(C(C)(C)CC#N)nc2C)ncc1C(F)(F)F [Example 41, 3-methyl-3-(3-methyl-4-((4-(methylamino)-5-(trifluoromethyl)pyrimidin-2-yl)amino)-1H-pyrazol-1-yl)butanenitrile] | 12.8 nM
CCNc1nc(Nc2cnn(C3CCOCC3)c2Cl)ncc1C#N [Example 7, 2-((5-chloro-1-(tetrahydro-2H-pyran-4-yl)-1H-pyrazol-4-yl)amino)-4-(ethylamino)pyrimidine-5-carbonitrile] | 6.2 nM
CCC(C#N)Cn1cc(Nc2ncc(C(F)(F)F)c(NC)n2)c(C)n1 (centres unmarked) [Example 42, 2-((3-methyl-4-((4-(methylamino)-5-(trifluoromethyl)pyrimidin-2-yl)amino)-1H-pyrazol-1-yl)methyl)butanenitrile] | 4.1 nM
CCNc1nc(Nc2cnn(C(C)(C)c3nncn3C)c2Cl)ncc1C(F)(F)F [Example 23, N2-(5-chloro-1-(2-(4-methyl-4H-1,2,4-triazol-3-yl)propan-2-yl)-1H-pyrazol-4-yl)-N4-ethyl-5-(trifluoromethyl)pyrimidine-2,4-diamine] | 1.1 nM
CNc1nc(Nc2cnn(CC(C)c3ccn(C)n3)c2C)ncc1C(F)(F)F (centres unmarked) [Example 25, N4-methyl-N2-(5-methyl-1-(2-(1-methyl-1H-pyrazol-3-yl)propyl)-1H-pyrazol-4-yl)-5-(trifluoromethyl)pyrimidine-2,4-diamine] | 108 nM
CCNc1nc(Nc2cn(C(C)(C)c3nnc(C)o3)nc2Cl)ncc1C(F)(F)F [Example 27, N2-(3-chloro-1-(2-(5-methyl-1,3,4-oxadiazol-2-yl)propan-2-yl)-1H-pyrazol-4-yl)-N4-ethyl-5-(trifluoromethyl)pyrimidine-2,4-diamine] | 3.7 nM
CNc1nc(Nc2cnn(S(=O)(=O)CCOC)c2C)ncc1C(F)(F)F [Example 22, N2-(1-((2-methoxyethyl)sulfonyl)-5-methyl-1H-pyrazol-4-yl)-N4-methyl-5-(trifluoromethyl)pyrimidine-2,4-diamine] | 6.46 nM
